The source of these data is patent publication US20240018157A1, “CYCLIC COMPOUNDS AND METHODS OF USING SAME” (Schrödinger, Inc., priority 2019, published 2024).

The test system of assay [1] is IL10 secretion, OCI-LY10 cells. In words: Human IL10 secretion assay, Assay 1 (HTRF). The following applies: 24 h incubation, read-out: IL-10 Secretion IC50 [nM] Assay 1. It counts as cell-based. How it is done: IL10 is one of the cytokines that are regulated via activation of NF-kB signaling. For example, in ABC-DLBCL cell lines, the activated NF-kB signaling leads to increased IL10 secretion. Inhibition of NF-kB signaling has been shown leading to decreased IL10 secretion.
Assay 1: OCI-LY10 cells were seeded in IMEM supplemented with 20% fetal bovine serum at 3×10^5 cells per well in 96-well round bottom plates (Corning 3799, Corning), treated with 100 nL of 3-fold serial compound dilutions, starting at 10 mM. The final vehicle concentration was 0.1% DMSO in all wells. After 24 h incubation, the cells were transferred to 96-PCR plates (Axygen: PCR-96-FLT-C) and centrifuged, then 16 μL of cell culture media was transferred to HTRF plates and IL10 levels were measured using human IL-10 Assay Kits (Cisbio) using HTRF format. The signals were transformed to percentage of remaining activity by using the high control (HC, median of signal from wells containing cells treated with DMSO) and low control (LC, median of signal from wells with no cells). IC50 values (nM) were determined using 4-parametric curve-fitting and Hill coefficient were obtained using Graph Pad Prism (Graph Pad software, Inc, USA) with non-linear regression analysis.
A general note: Time-resolved FRET reads energy transfer from a long-lived donor to a nearby acceptor.

In assay [2] the target is full-length MALT1 protein His-MALT1(1-824) (Homo sapiens (Human), UniProt Q9UDY8). In words: MALT1 protease assay, Assay 2 (1 nM MALT1, Ac-LRSR-AMC substrate). It counts as biochemical. The note with it: 1 nM MALT1, 50 μM Ac-LRSR-AMC, 2 h pre-incubation, 8 hr incubation at RT. The protocol: MALT1 protease activity was assessed in an in vitro assay using a tetrapeptide as substrate and full-length MALT1 protein His-MALT1(1-824) purified from baculovirus-infected insect cells.
Chain of full-length MALT1 protein His-MALT1(1-824) (Q9UDY8 whole entry): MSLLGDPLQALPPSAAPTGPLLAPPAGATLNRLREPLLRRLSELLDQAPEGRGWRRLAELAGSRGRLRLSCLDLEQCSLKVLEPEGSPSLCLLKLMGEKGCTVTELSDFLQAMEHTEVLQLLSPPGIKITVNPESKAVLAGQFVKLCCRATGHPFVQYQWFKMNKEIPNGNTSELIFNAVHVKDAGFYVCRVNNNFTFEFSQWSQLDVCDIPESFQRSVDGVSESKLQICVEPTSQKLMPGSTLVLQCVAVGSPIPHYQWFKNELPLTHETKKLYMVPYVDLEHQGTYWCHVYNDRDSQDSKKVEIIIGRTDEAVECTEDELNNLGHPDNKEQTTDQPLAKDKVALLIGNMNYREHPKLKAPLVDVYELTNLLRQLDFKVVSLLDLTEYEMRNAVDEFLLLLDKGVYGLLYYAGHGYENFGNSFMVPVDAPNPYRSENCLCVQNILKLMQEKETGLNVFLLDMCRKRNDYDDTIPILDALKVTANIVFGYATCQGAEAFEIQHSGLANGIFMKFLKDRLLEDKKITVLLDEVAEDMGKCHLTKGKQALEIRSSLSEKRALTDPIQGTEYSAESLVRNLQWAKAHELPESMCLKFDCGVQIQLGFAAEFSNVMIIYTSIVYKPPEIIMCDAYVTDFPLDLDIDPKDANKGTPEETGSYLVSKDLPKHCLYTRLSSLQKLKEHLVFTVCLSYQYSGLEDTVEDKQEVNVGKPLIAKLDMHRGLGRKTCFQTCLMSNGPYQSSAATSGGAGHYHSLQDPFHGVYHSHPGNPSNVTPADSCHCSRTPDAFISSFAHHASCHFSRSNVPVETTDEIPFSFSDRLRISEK
The final assay buffer includes 1 nM (Assay 2) or 2 nM (Assay 1) of MALT1 full-length protein, 50 μM Ac-LRSR-AMC substrate, 50 mM Tris pH 7.5, 600 mM Sodium Citrate, 1 mM DTT, 1 mM EDTA, and 0.05% BSA in 384-well plate format using black microtiter square well plates (Optiplate 384-F, Perkin Elmer).
Test compounds were dissolved in 100% DMSO at stock of 10 mM, with final DMSO concentration 0.1%. Test compounds were pre-incubated with MALT1 protein for 2 h at room temperature. Substrate was added after the pre-incubation and fluorescence signal was measured using Envision at excitation 355 nm and emission 460 nm after 8 hr incubation at RT.
The fluorescence units were transformed to percentage of remaining activity by using the high control (HC, median of fluorescence signal from wells containing MALT1 protein, substrate, and DMSO) and low control (LC, median of fluorescence signal from wells with substrate only) with the formula below: […]
IC50 and Hill coefficient were obtained using Graph Pad Prism (Graph Pad software, Inc, USA) with non-linear regression analysis.

On to `CC1(C)CCN(C(=O)Nc2cnc(-n3nccn3)c(Cl)c2)c2cnc3cc(Cl)nn3c21` [compound 7, 2-chloro-N-(5-chloro-6-(2H-1,2,3-triazol-2-yl)pyridin-3-yl)-9,9-dimethyl-8,9-dihydropyrazolo[1,5-a]pyrido[2,3-e]pyrimidine-6(7H)-carboxamide], for which the IC50 in assay [1] was in the range of 10 to 100 nM. Consider `Cc1cc2ncc3c(n2n1)C(C(F)(F)F)CCN3C(=O)Nc1cnc(-n2nccn2)c(Cl)c1` (stereo not shown) [compound 10, N-(5-chloro-6-(2H-1,2,3-triazol-2-yl)pyridin-3-yl)-2-methyl-9-(trifluoromethyl)-8,9-dihydropyrazolo[1,5-a]pyrido[2,3-e]pyrimidine-6(7H)-carboxamide], for which the IC50 in assay [1] was in the range of 100 to 1000 nM. In the case of `COc1ncc(NC(=O)N2C[C@@](C)(C(F)(F)F)c3c2cnc2cc(Cl)nn32)cc1Cl` [compound 18, (R)-2-chloro-N-(5-chloro-6-methoxypyridin-3-yl)-8-methyl-8-(trifluoromethyl)-7,8-dihydro-6H-pyrazolo[1,5-a]pyrrolo[2,3-e]pyrimidine-6-carboxamide], in assay [1], the IC50 lay in the range of 10 to 100 nM. On to `COc1ccc(NC(=O)N2C[C@@](C)(C(F)(F)F)c3c2cnc2cc(Cl)nn32)cc1Cl` [compound 19, (R)-2-chloro-N-(3-chloro-4-methoxyphenyl)-8-methyl-8-(trifluoromethyl)-7,8-dihydro-6H-pyrazolo[1,5-a]pyrrolo[2,3-e]pyrimidine-6-carboxamide], for which the IC50 in assay [1] is 100 to 1000 nM. Still for that read-out and setting: to `Cc1cc(NC(=O)N2C[C@@](C)(C(F)(F)F)c3c2cnc2cc(Cl)nn32)cnc1-n1nccn1` [compound 21, (R)-2-chloro-8-methyl-N-(5-methyl-6-(2H-1,2,3-triazol-2-yl)pyridin-3-yl)-8-(trifluoromethyl)-7,8-dihydro-6H-pyrazolo[1,5-a]pyrrolo[2,3-e]pyrimidine-6-carboxamide] belongs 10 to 100 nM. Same read-out and setting: to `C[C@@]1(C(F)(F)F)CN(C(=O)Nc2ccnc(C(F)(F)F)c2)c2cnc3cc(Cl)nn3c21` [compound 27, (R)-2-chloro-8-methyl-8-(trifluoromethyl)-N-(2-(trifluoromethyl)pyridin-4-yl)-7,8-dihydro-6H-pyrazolo[1,5-a]pyrrolo[2,3-e]pyrimidine-6-carboxamide] belongs 10 to 100 nM; to `C[C@@]1(C(F)(F)F)CN(C(=O)Nc2cnc(-n3ccnn3)c(C(F)F)c2)c2cnc3cc(Cl)nn3c21` [compound 36, (R)-2-chloro-N-(5-(difluoromethyl)-6-(1H-1,2,3-triazol-1-yl)pyridin-3-yl)-8-methyl-8-(trifluoromethyl)-7,8-dihydro-6H-pyrazolo[1,5-a]pyrrolo[2,3-e]pyrimidine-6-carboxamide], 10 to 100 nM.

For the compound `C[C@@]1(C(F)(F)F)CN(C(=O)Nc2cnc(-n3nccn3)c(C#N)c2)c2cnc3cc(Cl)nn3c21` [compound 41, (R)-2-chloro-N-(5-cyano-6-(2H-1,2,3-triazol-2-yl)pyridin-3-yl)-8-methyl-8-(trifluoromethyl)-7,8-dihydro-6H-pyrazolo[1,5-a]pyrrolo[2,3-e]pyrimidine-6-carboxamide], the IC50 in assay [1] was 10 to 100 nM.

As for `C[C@@]1(C(F)(F)F)CN(C(=O)Nc2cnc(-n3ccnn3)c(C(F)(F)F)c2)c2cnc3cc(Cl)nn3c21` [compound 44, (R)-N-(6-(1H-1,2,3-triazol-1-yl)-5-(trifluoromethyl)pyridin-3-yl)-2-chloro-8-methyl-8-(trifluoromethyl)-7,8-dihydro-6H-pyrazolo[1,5-a]pyrrolo[2,3-e]pyrimidine-6-carboxamide], the IC50 in assay [1] is 10 to 100 nM. On the same count and under the same terms, to `C[C@@]1(C(F)(F)F)CN(C(=O)Nc2cnc(-n3cc(O)cn3)c(Cl)c2)c2cnc3cc(Cl)nn3c21` [compound 48] belongs 10 to 100 nM.

As for `C[C@@]1(C(F)(F)F)CN(C(=O)Nc2cnc(-n3cc(CO)cn3)c(Cl)c2)c2cnc3cc(Cl)nn3c21` [compound 57, (R)-2-chloro-N-(5-chloro-6-(4-(hydroxymethyl)-1H-pyrazol-1-yl)pyridin-3-yl)-8-methyl-8-(trifluoromethyl)-7,8-dihydro-6H-pyrazolo[1,5-a]pyrrolo[2,3-e]pyrimidine-6-carboxamide], in assay [1], the IC50 is 10 to 100 nM. For the compound `Cc1cc(NC(=O)N2C[C@@](C)(C(F)(F)F)c3c2cnc2cc(Cl)nn32)cc(OC[C@H](C)N)n1` [compound 58, (R)-N-(2-((S)-2-aminopropoxy)-6-methylpyridin-4-yl)-2-chloro-8-methyl-8-(trifluoromethyl)-7,8-dihydro-6H-pyrazolo[1,5-a]pyrrolo[2,3-e]pyrimidine-6-carboxamide], the IC50 in assay [2] is 10 to 100 nM.

As for `C[C@@]1(C(F)(F)F)CN(C(=O)Nc2ccnc(C(F)F)c2)c2cnc3cc(Cl)nn3c21` [compound 60, (R)-2-chloro-N-(2-(difluoromethyl)pyridin-4-yl)-8-methyl-8-(trifluoromethyl)-7,8-dihydro-6H-pyrazolo[1,5-a]pyrrolo[2,3-e]pyrimidine-6-carboxamide], the IC50 in assay [1] was 10 to 100 nM.

Consider `COc1c(Cl)cc(NC(=O)N2C[C@@](C)(C(F)(F)F)c3c2cnc2cc(Cl)nn32)nc1O[C@H]1CCNC1` [compound 63, (R)-2-chloro-N-(4-chloro-5-methoxy-6-(((S)-pyrrolidin-3-yl)oxy)pyridin-2-yl)-8-methyl-8-(trifluoromethyl)-7,8-dihydro-6H-pyrazolo[1,5-a]pyrrolo[2,3-e]pyrimidine-6-carboxamide], for which, in assay [1], the IC50 was 10 to 100 nM. On the same count and under the same terms, to `COc1cnc(C(F)(F)F)cc1NC(=O)N1C[C@@](C)(C(F)(F)F)c2c1cnc1cc(Cl)nn21` [compound 66, (R)-2-chloro-N-(5-methoxy-2-(trifluoromethyl)pyridin-4-yl)-8-methyl-8-(trifluoromethyl)-7,8-dihydro-6H-pyrazolo[1,5-a]pyrrolo[2,3-e]pyrimidine-6-carboxamide] belongs 100 to 1000 nM. The compound `CC(C)(O)c1cc(NC(=O)N2C[C@@](C)(C(F)(F)F)c3c2cnc2cc(Cl)nn32)cc(C(F)(F)F)n1` [compound 78, (R)-2-chloro-N-(2-(2-hydroxypropan-2-yl)-6-(trifluoromethyl)pyridin-4-yl)-8-methyl-8-(trifluoromethyl)-7,8-dihydro-6H-pyrazolo[1,5-a]pyrrolo[2,3-e]pyrimidine-6-carboxamide] registered an IC50 in assay [2] of 100 to 1000 nM. As for `COCc1cnn(-c2ncc(NC(=O)N3C[C@@](C)(C(F)(F)F)c4c3cnc3cc(Cl)nn43)cc2Cl)n1` [compound 79, (R)-2-chloro-N-(5-chloro-6-(4-(methoxymethyl)-2H-1,2,3-triazol-2-yl)pyridin-3-yl)-8-methyl-8-(trifluoromethyl)-7,8-dihydro-6H-pyrazolo[1,5-a]pyrrolo[2,3-e]pyrimidine-6-carboxamide], in assay [1], the IC50 lay within 10 to 100 nM. As to `CC(O)c1cc2ncc3c(n2n1)C(C)(C(F)(F)F)CN3C(=O)Nc1cnc(-n2nccn2)c(Cl)c1` (stereo not shown) [compound 80, N-(5-chloro-6-(2H-1,2,3-triazol-2-yl)pyridin-3-yl)-2-(1-hydroxyethyl)-8-methyl-8-(trifluoromethyl)-7,8-dihydro-6H-pyrazolo[1,5-a]pyrrolo[2,3-e]pyrimidine-6-carboxamide], the IC50 in assay [2] fell in the range of 100 to 1000 nM.

In the case of `COc1nc(OC2CN(C)C2)c(NC(=O)N2C[C@@](C)(C(F)(F)F)c3c2cnc2cc(Cl)nn32)cc1Cl` [compound 81, (R)-2-chloro-N-(5-chloro-6-methoxy-2-((1-methylazetidin-3-yl)oxy)pyridin-3-yl)-8-methyl-8-(trifluoromethyl)-7,8-dihydro-6H-pyrazolo[1,5-a]pyrrolo[2,3-e]pyrimidine-6-carboxamide], the IC50 in assay [2] fell in the range of 100 to 1000 nM. In the case of `C[C@@]1(C(F)(F)F)CN(C(=O)Nc2cc(N=S(C)(C)=O)nc(C(F)(F)F)c2)c2cnc3cc(Cl)nn3c21` [compound 83], the IC50 in assay [1] fell in the range of 100 to 1000 nM. Consider `C[C@@]1(C(F)(F)F)CN(C(=O)Nc2cnc(N=S(C)(C)=O)c(Cl)c2)c2cnc3cc(Cl)nn3c21` [compound 85], for which, in assay [1], the IC50 lay within 100 to 1000 nM. In assay [2], `C[C@]1(C(F)(F)F)CN(C(=O)Nc2cnc(-n3nccn3)c(C#N)c2)c2cnc3cc(F)nn3c21` [compound 90, (S)-N-(5-cyano-6-(2H-1,2,3-triazol-2-yl)pyridin-3-yl)-2-fluoro-8-methyl-8-(trifluoromethyl)-7,8-dihydro-6H-pyrazolo[1,5-a]pyrrolo[2,3-e]pyrimidine-6-carboxamide] yielded an IC50 of 10 to 100 nM.

The IC50 is the concentration needed to halve the response being measured.
